In ChEMBL document CHEMBL1134884, “Novel indolo[2,1-b]quinazoline analogues as cytostatic agents: synthesis, biological evaluation and structure-activity relationship” (Bioorg Med Chem Lett, 2002):

Columns and labels:
[1] = system: SW-620; assay: Tested for in vitro cytotoxic activity against colon SW620 human cancer cell lines; assay type: functional
[2] = system: NCI/ADR-RES; assay: Tested for in vitro cytotoxic activity against breast MCF-7/ADR human cancer cell lines; assay type: functional
[3] = system: A498; assay: Tested for in vitro cytotoxic activity against renal A498 human cancer cell lines; assay type: functional
[4] = system: DU-145; assay: Tested for in vitro cytotoxic activity against prostate DU145 human cancer cell lines; assay type: functional
[5] = system: M14; assay: Tested for in vitro cytotoxic activity against melanoma M14 human cancer cell lines; assay type: functional
[6] = system: U-251; assay: Tested for in vitro cytotoxic activity against CNS U251 human cancer cell lines; assay type: functional
[7] = system: NCI-H522; assay: Tested for in vitro cytotoxic activity against lung H522 human cancer cell lines; assay type: functional
[8] = system: SK-OV-3; assay: Tested for in vitro cytotoxic activity against ovarian SKOV3 human cancer cell lines; assay type: functional
[9] = system: Mus musculus; assay: Maximum mean weight loss on 24th day after administration of 40 mg/kg daily for 10 days(total 400 mg/kg).; assay type: functional
[10] = Bioavailability (dose 20 mg/kg); assay type: ADME, organism-based; conditions: eutheria, in vivo
[11] = species on record: Mus musculus; assay: Antitumor activity after 24 days was determined.; assay type: functional
[12] = system: Mus musculus; assay: Maximum mean weight loss on 26th day after administration of 40 mg/kg daily for 10 days(total 400 mg/kg).; assay type: functional
[13] = species on record: Mus musculus; assay: Antitumor activity after 17 days was determined.; assay type: functional

Row | SMILES | GI50 [1] [µM] | GI50 [2] [µM] | GI50 [3] [µM] | GI50 [4] [µM] | GI50 [5] [µM] | GI50 [6] [µM] | GI50 [7] [µM] | GI50 [8] [µM] | Max mean weight loss [9] [%] | bioavailability [10] [%] | Optimum T/C [11] [%] | Max mean weight loss [12] [%] | Optimum T/C [13] [%]
1 | O=C1c2cc(Br)ccc2-n2c1nc1ccccc1c2=O | 0.4 | 0.7 | 3 | 0.15 | 0.8 | > 100 | 0.7 | 5 |  |  |  |  | 
2 | CC(=O)Nc1ccc2c(c1)C(=O)c1nc3ccccc3c(=O)n1-2 | 30 | 0.4 | 0.4 | 0.5 | 10 | 20 | 5 | 20 |  |  |  |  | 
3 | CN(C)CCO/N=C1\c2cc([N+](=O)[O-])ccc2-n2c1nc1ccccc1c2=O | 0.75 | 4 | > 100 | > 100 | 7.5 | 7.5 | 9 | 9 |  |  |  |  | 
4 | COC(=O)CO/N=C1\c2ccccc2-n2c1nc1ccccc1c2=O | > 100 | 0.01 | > 100 | 30 | 40 | > 100 | 80 | 50 |  |  |  |  | 
5 | C=CC1(O)c2ccccc2-n2c1nc1ccccc1c2=O (stereo not given) | 10 | 20 | 12 | 10 | 8 | 12 | 15 | 6 |  |  |  |  | 
6 | CC1(O)c2ccccc2-n2c1nc1ccccc1c2=O (stereo not given) | > 100 | > 100 | > 100 | > 100 | > 100 | > 100 | > 100 | > 100 |  |  |  |  | 
7 | COc1cc2nc3n(c(=O)c2cc1OC)-c1ccccc1C3=O | > 100 | > 100 | > 100 | > 100 | > 100 | > 100 | > 100 | > 100 |  |  |  |  | 
8 | CN(C)CCO/N=C1\c2ccccc2-n2c1nc1ccccc1c2=O | 0.75 | 0.4 | 0.6 | 2.5 | 2 | 0.8 | 0.7 | 2 | 14 | 14 | 75 |  | 
9 | CS(=O)(=O)Nc1ccc2c(c1)C(=O)c1nc3ccccc3c(=O)n1-2 | > 100 | > 100 | > 100 | > 100 | > 100 | > 100 | > 100 | > 100 |  |  |  |  | 
10 | O=c1c2ccccc2nc2n1-c1ccccc1/C2=N\OCCCN1CCCC1 | 4.5 | 5 | 7 | 5 | 6 | 6 | 4 | 4 |  |  |  |  | 
11 | O=C(CCl)Nc1ccc2c(c1)C(=O)c1nc3ccccc3c(=O)n1-2 | 0.6 | 0.06 | 0.4 | 0.25 | 0.9 | 0.2 | 4 | 0.05 |  |  |  |  | 
12 | O=C(/C=C/c1ccccc1)O/N=C1\c2ccccc2-n2c1nc1ccccc1c2=O | 60 | 7.5 | 10 | > 100 | 90 | 20 | 45 | 6 |  |  |  |  | 
13 | O=c1c2ccccc2nc2n1-c1ccc(Br)cc1/C2=N\OCCN1CCCCC1 | 3 | 0.3 | 2 | 0.55 | 2.5 | 0.095 | 2 | 1 |  |  |  |  | 
14 | CN(C)CCCO/N=C1\c2cc([N+](=O)[O-])ccc2-n2c1nc1ccccc1c2=O | 0.5 | 4 | 0.09 | 2 | 0.4 | 2.5 | 0.4 | 0.6 |  | 76 |  | 14 | 23
15 | O=c1c2ccccc2nc2n1-c1ccccc1C2(O)OCCOc1ccccc1 (stereo not given) | > 100 | > 100 | > 100 | > 100 | > 100 | > 100 | > 100 | > 100 |  |  |  |  | 
16 | O=C1c2ccccc2-n2c1nc1ccc(Br)cc1c2=O | > 100 | > 100 | > 100 | > 100 | > 100 | > 100 | > 100 | > 100 |  |  |  |  | 
17 | O=C1c2cc3c(cc2-n2c1nc1ccccc1c2=O)OCO3 | > 100 | > 100 | > 100 | > 100 | > 100 | > 100 | > 100 | > 100 |  |  |  |  | 
18 | O=C1c2ccccc2-n2c1nc1ccccc1c2=O [TRYPTANTHRIN] | 5 | 30 | 0.95 | 0.4 | 15 | 100 | 15 | 2.5 |  |  |  |  | 
